Measurements published in patent US20210198277A1, “AMINE-SUBSTITUTED ARYL OR HETEROARYL COMPOUNDS” (Epizyme, Inc., priority 2016, published 2021).

molecular target: T1, human EHMT2 913-1193 (Homo sapiens, UniProt Q96KQ7); assay: EHMT2 enzyme assay on histone peptide substrate (EHMT2 PEP); assay type: biochemical; conditions: recombinant human EHMT2 913-1193, histone H3 1-15 peptide, balanced conditions; read-out: EHMT2 PEP (IC50 μM)
T1 construct: recombinant purified human EHMT2 913-1193, Viva; purchased Viva
T1 sequence (Q96KQ7 913-1193): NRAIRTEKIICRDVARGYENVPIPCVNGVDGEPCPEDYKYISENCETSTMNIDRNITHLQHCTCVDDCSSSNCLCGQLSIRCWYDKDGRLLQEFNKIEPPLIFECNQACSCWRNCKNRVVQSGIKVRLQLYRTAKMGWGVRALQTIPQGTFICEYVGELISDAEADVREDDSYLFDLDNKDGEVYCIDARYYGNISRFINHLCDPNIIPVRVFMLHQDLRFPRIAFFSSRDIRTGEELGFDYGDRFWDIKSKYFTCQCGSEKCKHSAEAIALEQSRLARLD
Summary of the method: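 Compounds (10-point, 3-fold dilutions, top 50 μM final, 2% DMSO) preincubated 30 min with 0.031 nM EHMT2 in 20 mM Bicine pH 7.5, 0.002% Tween 20, 0.005% gelatin, 1 mM TCEP. Biotinylated histone peptide methylated with ^3H-SAM 60 min at room temperature. Quenched with unlabeled SAM; product captured on streptavidin Flashplate, scintillation counted.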

Structure (SMILES)	IC50 [µM]
CNc1ccnc(Nc2cc(OCCCN3CCCC3)c3cn[nH]c3c2)n1 [Compound 538, N^4-methyl-N^2-(4-(3-(pyrrolidin-1-yl)propoxy)-1H-indazol-6-yl)pyrimidine-2,4-diamine]	0.1 to 1
CNc1ccnc(Nc2cc(OCCCN3CCCC3)c3[nH]ncc3c2)n1 [Compound 539]	1 to 10
CNc1ccnc(NC2CCCNC2)n1 (stereo not drawn) [Compound 541, N^4-methyl-N^2-(piperidin-3-yl)pyrimidine-2,4-diamine]	> 10
CNc1ccnc(NC2CCNCC2)n1 [Compound 542, N^4-methyl-N^2-(piperidin-4-yl)pyrimidine-2,4-diamine]	> 10
CCCC1(Nc2nccc(NC)n2)CCCNC1 (stereo not drawn) [Compound 544]	> 10
CCCC1(Nc2nccc(NC)n2)CCNCC1 [Compound 545]	> 10
CNc1ccnc(NC2(C)CCCNC2)n1 (stereo not drawn) [Compound 546, N^4-methyl-N^2-(3-methylpiperidin-3-yl)pyrimidine-2,4-diamine]	> 10
CNc1ccnc(NC2(C)CCNCC2)n1 [Compound 547, N^4-methyl-N^2-(4-methylpiperidin-4-yl)pyrimidine-2,4-diamine]	> 10
CNc1ccnc(N[C@@H]2CC[C@H](N)C2)n1 [Compound 548, N^2-((1R,3S)-3-aminocyclopentyl)-N^4-methylpyrimidine-2,4-diamine]	> 10
CCCCN1CCCC(C)(Nc2nccc(NC)n2)C1 (stereo not drawn) [Compound 549, N^2-(1-butyl-3-methylpiperidin-3-yl)-N^4-methylpyrimidine-2,4-diamine]	> 10
CCCCN1CCC(C)(Nc2nccc(NC)n2)CC1 [Compound 550, N^2-(1-butyl-4-methylpiperidin-4-yl)-N^4-methylpyrimidine-2,4-diamine]	> 10
c1nc(NC2CCNCC2)ncc1OCCCN1CCCC1 [Compound 552]	> 10
CN1CCC(COc2cnc(NCC3CCOCC3)nc2)C1 (stereo not drawn) [Compound 553]	> 10
CN1CCC(COc2ccc(NC3CCNCC3)nc2)C1 (stereo not drawn) [Compound 554]	> 10
CN1CCC(COc2cnc(NC3CCNCC3)nc2)C1 (stereo not drawn) [Compound 555]	> 10
c1nc(NC2CCNCC2)ncc1OCC1CCN(C2CC2)C1 (stereo not drawn) [Compound 556]	> 10
c1nc(NC2CCOCC2)ncc1OCC1CCN(C2CC2)C1 (stereo not drawn) [Compound 557]	> 10
CCN1CC(COc2cc(Nc3nccc4[nH]ccc34)ncc2OC)C1 [Compound 564]	< 0.1

Structure (SMILES)	IC50 [µM]
COc1cc(Nc2nc(C)cc3[nH]ncc23)ncc1OCCCN1CCCC1 [Compound 565]	1 to 10
COc1ccc(NC2CCNCC2)cc1OCCCN1CCCC1 [Compound 572]	> 10
COc1ccc(NC2CCCNC2)cc1OCCCN1CCCC1 (stereo not drawn) [Compound 573]	1 to 10
COc1cc(NC2CCCNC2)ccc1OCCCN1CCCC1 (stereo not drawn) [Compound 578]	1 to 10
COc1cc(NC2CCNCC2)ccc1OCCCN1CCCC1 [Compound 579]	1 to 10
COc1cnc(Nc2cccc3[nH]ncc23)cc1OCCCN1CCCC1 [Compound 581]	1 to 10
COc1ccc(Nc2nccc3[nH]ncc23)cc1OCCCN1CCCC1 [Compound 582]	> 10
COc1cnc(Nc2ccnc3[nH]ncc23)cc1OCCCN1CCCC1 [Compound 583]	1 to 10
CCN1CC(COc2cc(Nc3cccc4nncn34)ncc2OC)C1 [Compound 584]	> 10
COc1cnc(Nc2cccc3nccn23)cc1OCCCN1CCCC1 [Compound 585]	1 to 10
COc1cnc(Nc2cccn3ccnc23)cc1OCCCN1CCCC1 [Compound 586]	1 to 10
COc1cc2c(C3CCN(C)CC3)nc(N(C)C)nc2cc1OCCCN1CCCC1 [Compound 587]	< 0.1
CC(C)N1CC(COc2cnc(NC3CCNCC3)nc2)C1 [Compound 588]	> 10
COc1cnc(Nc2cccc3cncn23)cc1OCCCN1CCCC1 [Compound 589]	> 10
COc1ncc(Nc2nc(C)cc(NCC3CCOCC3)n2)cc1OCCCN1CCCC1 [Compound 591]	< 0.1
COc1cnc(Nc2cc(C)nc3[nH]ncc23)cc1OCCCN1CCCC1 [Compound 596]	1 to 10
C/C=C/C(=O)Nc1cc(OCCCN2CCCC2)c(OC)cn1 [Compound 597]	> 10
C/C=C/C(=O)Nc1ccc(OC)c(OCCCN2CCCC2)c1 [Compound 598]	> 10

Second part, the molecule after the results:

IC50 [µM]	Structure (SMILES)
0.1 to 1	CNc1cc(C)nc(Nc2ccc(OC)c(OCCCN(C)C3CCC3)c2)n1 [Compound 551, N^2-(3-(3-(cyclobutyl(methyl)amino)propoxy)-4-methoxyphenyl)-N^4,6-dimethylpyrimidine-2,4-diamine]
0.1 to 1	CNc1cc(C)nc(Nc2cnc(OC)c(OC[C@H]3CCN(C4CC4)C3)c2)n1 [Compound 558]
0.1 to 1	CNc1cc(C)nc(Nc2ccc(OC)c(OCC3CN(C(C)C)C3)c2)n1 [Compound 559]
0.1 to 1	CCN1CC(C(O)Oc2cc(Nc3nc(C)cc(NC)n3)ccc2OC)C1 (stereo not drawn) [Compound 560]
> 10	CNc1cc(C)nc(Nc2ccc(OC)c(O)c2)n1 [Compound 561]
1 to 10	CCN1CC(C(C#N)Oc2cc(Nc3nc(C)cc(NC)n3)ccc2OC)C1 (stereo not drawn) [Compound 562]
< 0.1	CNc1cc(C)nc(Nc2ccc(OC)c(OC[C@@H]3CCN(C4CCC4)C3)c2)n1 [Compound 563]
1 to 10	CCN1CC(COc2cc(Nc3cc(NC)ncc3F)ncc2OC)C1 [Compound 566]
1 to 10	CCN1CC(COc2cc(Nc3cc(NC)nc(C)c3F)ncc2OC)C1 [Compound 567]
0.1 to 1	CNc1cc(C)nc(Nc2ccc(OC)c(OC[C@@H]3CCN(C4(C)CC4)C3)c2)n1 [Compound 568]
0.1 to 1	CCN1CC(COc2cc(Nc3cc(NC)cc(C)n3)cnc2OC)C1 [Compound 569]
< 0.1	CCN1CC[C@@H](COc2cc(Nc3nc(C)cc(NC)n3)ccc2OC)C1 [Compound 571]
1 to 10	CNc1cc(C)nc(Nc2ccc(OC)c(OCCCN3CC4(CC4)C3)c2)n1 [Compound 574]
1 to 10	CNc1cc(C)nc(Nc2ccc(OC)c(OCC3CN(C(C)C)C3)c2)n1 [Compound 575]
0.1 to 1	CNc1cc(C)nc(Nc2ccc(OC)c(OCC3CN(C4CCC4)C3)c2)n1 [Compound 576]
1 to 10	CNc1cc(C)nc(Nc2ccc(OC)c(OCC3CN(C4CCCC4)C3)c2)n1 [Compound 577]
> 10	CNc1cc(C)nc(Nc2ccc(OC)c(OCC3CN(C4CCOC4)C3)c2)n1 (stereo not drawn) [Compound 580]
< 0.1	COc1ccc(Nc2nc(C)cc(NCC3CCOCC3)n2)cc1OCCCN1CCCC1 [Compound 590]
0.1 to 1	COc1ncc(Nc2nc(C)cc(NCC3CCOCC3)n2)cc1OC[C@@H]1CCN(C(C)C)C1 [Compound 592]
0.1 to 1	COc1ncc(Nc2nc(C)cc(NC(C)C)n2)cc1OCCCN1CCCC1 [Compound 593]
0.1 to 1	COc1ncc(Nc2nc(C)cc(NCC3CCOCC3)n2)cc1OC[C@@H]1CCN(C2CCC2)C1 [Compound 594]
0.1 to 1	COc1ncc(Nc2nc(C)cc(NCC3CCOCC3)n2)cc1OC[C@@H]1CCN(C2CCC2)C1 [Compound 595]
0.1 to 1	CCN1CC[C@@H](COc2cc(Nc3nc(C)cc(NC)n3)cnc2OC)C1 [Compound 599]
< 0.1	CNc1cc(C)nc(Nc2ccc(OC)c(OC[C@@H]3CCNC3)c2)n1 [Compound 600]
0.1 to 1	CCc1cc(NC)nc(Nc2cnc(OC)c(OC[C@@H]3CCN(CC)C3)c2)n1 [Compound 601]
0.1 to 1	CCN1CC[C@@H](COc2cc(Nc3nc(C)cc(NC(C)C)n3)ccc2OC)C1 [Compound 602]
< 0.1	COc1ccc(Nc2nc(C)cc(NC(C)C)n2)cc1OCCCN1CCCC1 [Compound 603]
